Measured values: ChEMBL document CHEMBL1201862, “PubChem BioAssay data set” (2004)
Calls of active or inactive are those of the source.

Key:
[1] = tested on: Streptococcus sp. 'group A'; experiment: Streptococcus pyogenes SK(-)GAS viability under kanamycin – luminescence, BacTiterGlo, confirmation, counter-screen for streptokinase expression inhibitor project, dose response (AID 1900); type: functional, organism-based
[2] = tested on: Streptococcus; experiment: GAS UMAA2166 growth inhibition – luminescence, BacTiterGlo, counter-screen for streptokinase expression inhibitor project, dose response (AID 1915); type: functional, organism-based;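 note: potency for reduction of bacterial viability or growth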
[3] = molecular target: T1, Streptokinase A (Streptococcus pyogenes serotype M1, UniProt P10520); experiment: viability-normalized secreted streptokinase activity reduction – plasminogen activation absorbance, OD405, dose response (AID 1914); type: functional, Streptococcus pyogenes M1 GAS;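 note: secreted streptokinase activity via plasminogen activation per viability signal from cell pellet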
T1 sequence (P10520 whole entry): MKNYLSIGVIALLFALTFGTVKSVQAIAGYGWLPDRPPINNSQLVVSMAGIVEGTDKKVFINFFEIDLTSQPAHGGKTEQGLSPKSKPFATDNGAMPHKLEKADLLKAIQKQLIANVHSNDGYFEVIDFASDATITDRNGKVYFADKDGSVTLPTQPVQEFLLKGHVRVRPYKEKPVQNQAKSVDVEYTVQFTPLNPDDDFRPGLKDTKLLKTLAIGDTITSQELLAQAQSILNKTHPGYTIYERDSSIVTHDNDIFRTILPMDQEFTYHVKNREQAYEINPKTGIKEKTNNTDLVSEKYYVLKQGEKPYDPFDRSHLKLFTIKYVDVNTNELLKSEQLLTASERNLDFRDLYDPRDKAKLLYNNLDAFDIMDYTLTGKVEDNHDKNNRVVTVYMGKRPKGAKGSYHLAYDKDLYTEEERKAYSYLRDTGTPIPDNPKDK

[4] = tested on: HEK293; experiment: cells; settings: Homo sapiens
[5] = tested on: HEK293; experiment: cells; settings: Homo sapiens; remark: listed apart in the source
[6] = molecular target: T2, Microphthalmia-associated transcription factor (Homo sapiens, UniProt O75030); experiment: reducers of TRPM1 reporter luminescence, concentration series – cell-based, SK-MEL-5, cherry-picked, set 3, MITF inhibitor project, dose response (AID 493073); type: functional;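 note: SK-MEL-5 melanoma cells with luciferase driven by the MITF target TRPM1 promoter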
T2 sequence (O75030 whole entry): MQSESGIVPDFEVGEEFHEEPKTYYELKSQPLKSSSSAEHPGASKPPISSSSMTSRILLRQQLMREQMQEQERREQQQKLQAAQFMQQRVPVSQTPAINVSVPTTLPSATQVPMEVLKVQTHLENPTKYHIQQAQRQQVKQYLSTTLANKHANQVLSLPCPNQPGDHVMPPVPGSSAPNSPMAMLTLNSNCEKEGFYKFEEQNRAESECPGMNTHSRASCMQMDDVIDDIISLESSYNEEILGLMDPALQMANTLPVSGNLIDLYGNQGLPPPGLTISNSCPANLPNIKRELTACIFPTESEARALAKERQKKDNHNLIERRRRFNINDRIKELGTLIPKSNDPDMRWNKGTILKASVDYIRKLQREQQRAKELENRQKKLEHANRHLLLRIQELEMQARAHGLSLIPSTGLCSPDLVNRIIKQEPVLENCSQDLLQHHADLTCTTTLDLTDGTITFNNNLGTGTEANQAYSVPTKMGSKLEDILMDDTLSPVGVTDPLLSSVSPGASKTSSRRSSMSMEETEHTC

[7] = molecular target: T3, Protein RecA (Mycobacterium tuberculosis, UniProt P9WHJ3); experiment: Fluorescence Cell-Free Homogeneous Dose Retest to Identify Inhibitors of RecA-Intein Splicing Activity. [Related pubchem assays (depositor defined):AID2097, AID2223, AID489010, AID492950]; type: functional
T3 sequence (P9WHJ3 whole entry): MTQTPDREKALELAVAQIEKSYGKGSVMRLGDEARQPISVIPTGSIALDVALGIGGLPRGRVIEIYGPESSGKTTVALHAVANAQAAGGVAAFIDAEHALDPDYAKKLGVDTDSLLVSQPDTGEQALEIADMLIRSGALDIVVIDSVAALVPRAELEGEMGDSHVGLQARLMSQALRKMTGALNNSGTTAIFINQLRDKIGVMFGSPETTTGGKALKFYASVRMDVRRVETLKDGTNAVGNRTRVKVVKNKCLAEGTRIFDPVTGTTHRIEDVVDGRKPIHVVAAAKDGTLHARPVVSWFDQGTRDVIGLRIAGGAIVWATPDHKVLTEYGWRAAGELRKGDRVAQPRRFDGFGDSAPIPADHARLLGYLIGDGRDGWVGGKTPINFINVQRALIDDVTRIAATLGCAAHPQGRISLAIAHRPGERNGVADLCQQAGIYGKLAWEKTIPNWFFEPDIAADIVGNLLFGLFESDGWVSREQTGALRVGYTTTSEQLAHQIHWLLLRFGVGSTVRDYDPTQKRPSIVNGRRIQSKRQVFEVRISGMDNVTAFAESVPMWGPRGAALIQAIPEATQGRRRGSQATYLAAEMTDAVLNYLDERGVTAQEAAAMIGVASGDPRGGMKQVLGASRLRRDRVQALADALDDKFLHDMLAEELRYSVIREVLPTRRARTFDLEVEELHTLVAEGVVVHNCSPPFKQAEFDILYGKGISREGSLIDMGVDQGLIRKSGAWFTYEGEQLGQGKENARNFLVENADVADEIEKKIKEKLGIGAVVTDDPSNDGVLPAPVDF

[8] = molecular target: T4, Replicative DNA helicase DnaB (Mycobacterium tuberculosis, UniProt P9WMR3); experiment: DnaB intein splicing inhibitors, dose response, biochemical, cell-free fluorescence (AID 449749); type: functional
T4 sequence (P9WMR3 whole entry): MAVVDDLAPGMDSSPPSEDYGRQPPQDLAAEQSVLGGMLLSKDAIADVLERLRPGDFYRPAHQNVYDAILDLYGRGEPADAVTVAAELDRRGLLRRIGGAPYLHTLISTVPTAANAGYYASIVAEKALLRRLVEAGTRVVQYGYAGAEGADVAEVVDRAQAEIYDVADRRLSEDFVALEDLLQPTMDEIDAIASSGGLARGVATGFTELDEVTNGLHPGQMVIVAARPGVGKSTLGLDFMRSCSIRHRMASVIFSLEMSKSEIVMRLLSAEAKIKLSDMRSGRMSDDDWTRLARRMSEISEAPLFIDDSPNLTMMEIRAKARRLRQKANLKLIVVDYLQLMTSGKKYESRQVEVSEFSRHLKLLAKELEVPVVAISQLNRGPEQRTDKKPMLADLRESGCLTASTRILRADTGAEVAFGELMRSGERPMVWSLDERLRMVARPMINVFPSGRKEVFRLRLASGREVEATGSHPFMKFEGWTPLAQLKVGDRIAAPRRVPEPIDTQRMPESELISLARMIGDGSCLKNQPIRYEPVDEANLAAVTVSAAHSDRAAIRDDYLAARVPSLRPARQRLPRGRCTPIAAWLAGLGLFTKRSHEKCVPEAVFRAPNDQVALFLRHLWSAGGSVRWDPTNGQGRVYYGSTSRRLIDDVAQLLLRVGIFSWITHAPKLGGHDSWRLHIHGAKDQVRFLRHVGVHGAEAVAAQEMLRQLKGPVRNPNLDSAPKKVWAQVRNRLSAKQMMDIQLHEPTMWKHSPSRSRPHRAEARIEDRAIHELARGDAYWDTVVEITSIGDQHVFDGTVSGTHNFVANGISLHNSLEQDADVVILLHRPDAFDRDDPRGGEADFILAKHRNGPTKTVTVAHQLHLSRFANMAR

[9] = viability loss in HepG2 hepatoma cells – cell-based, ATP luminescence, cherry-pick, activator set 2, cytotoxicity control, dose response (AID 1053143); type: functional
[10] = THP-1 cell cytotoxicity, dose response, cytotoxicity control for non-replicating M. tuberculosis project (AID 489025); type: functional
[11] = molecular target: T5, Heat shock factor protein 1 (Mus musculus, UniProt P38532); experiment: enhancement of HSF1-driven luciferase signal – cell-based, NIH3T3, luminescence, dose retest, confirmation (AID 435004); type: functional;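 note: stress induced by proteasome inhibitor MG132 added 30 min after compound; luciferase reporter driven by HSF1 response element in NIH3T3 cells; actives raise luminescence as potentiators of the MG132 stress response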
T5 sequence (P38532 whole entry): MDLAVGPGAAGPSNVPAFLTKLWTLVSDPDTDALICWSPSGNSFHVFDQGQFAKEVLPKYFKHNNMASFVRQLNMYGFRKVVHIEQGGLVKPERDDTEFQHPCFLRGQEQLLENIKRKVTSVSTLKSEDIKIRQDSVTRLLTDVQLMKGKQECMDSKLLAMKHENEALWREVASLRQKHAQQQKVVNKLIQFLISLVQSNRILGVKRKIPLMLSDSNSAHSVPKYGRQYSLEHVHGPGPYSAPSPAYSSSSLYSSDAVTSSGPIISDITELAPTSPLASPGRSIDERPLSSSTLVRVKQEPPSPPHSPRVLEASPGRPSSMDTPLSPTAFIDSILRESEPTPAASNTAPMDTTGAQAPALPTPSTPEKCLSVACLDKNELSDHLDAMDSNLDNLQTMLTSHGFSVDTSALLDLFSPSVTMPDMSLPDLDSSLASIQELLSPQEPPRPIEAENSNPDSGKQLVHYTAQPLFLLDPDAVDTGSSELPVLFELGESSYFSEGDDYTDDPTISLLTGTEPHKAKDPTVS

[12] = Trypanosoma cruzi growth suppression in host cells – NIH3T3 host cells, beta-gal luminescence, confirmation (AID 2044); type: functional, cell-based;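 note: intracellular parasites grown in NIH/3T3 mouse fibroblasts as host cells; luminescent beta-galactosidase reporter signal from transgenic T. cruzi replicating inside host cells; inhibitors lower the luminescence signal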
[13] = HepG2 cell cytotoxicity, dose response, cytotoxicity control for non-replicating M. tuberculosis project (AID 489018); type: functional; settings: Mycobacterium tuberculosis
[14] = microbe, parasite or virus in culture; type: functional; settings: Mycobacterium tuberculosis
[15] = cells; type: functional
[16] = Vero E6 cell cytotoxicity, dose response, cytotoxicity control for non-replicating M. tuberculosis project, secondary assay (AID 492998); type: functional, VeroE6; settings: Vero C1008
[17] = tested on: A-375; experiment: MITF: Counter assay: A375 proliferation Measured in Cell-Based System Using Plate Reader - 2084-03_Inhibitor_Dose_DryPowder_Activity. [Related pubchem assays (depositor defined):AID488944]; type: functional; settings: Homo sapiens
[18] = NIH3T3 cell viability loss – ATP luminescence, mouse fibroblasts, counter-screen, dose response (AID 2010); type: functional, cell-based;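 note: cells exposed to compound for about 90 hours before reading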
[19] = MIN6 cell viability loss – mouse insulinoma, cytotoxicity control, dose response (AID 2122); type: functional;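 note: confirmatory high-throughput counterscreen run to flag cytotoxic compounds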
[20] = decrease of insulin promoter-GFP reporter – imaging, high-content screening, mouse beta cells (AID 1628); type: functional; settings: MIN6
[21] = tested on: Escherichia coli; experiment: microbe, parasite or virus in culture
[22] = molecular target: T6, Neuropeptides B/W receptor type 1 (Homo sapiens, UniProt P48145); experiment: Fluorescence-based dose response cell-based high throughput screening assay to identify antagonists of the G-protein coupled receptor 7 (GPR7). [Related pubchem assays: 1952 (Screening assay (GPR7 antagonists).), 1880 (Summary AID.)]; type: functional
T6 sequence (P48145 whole entry): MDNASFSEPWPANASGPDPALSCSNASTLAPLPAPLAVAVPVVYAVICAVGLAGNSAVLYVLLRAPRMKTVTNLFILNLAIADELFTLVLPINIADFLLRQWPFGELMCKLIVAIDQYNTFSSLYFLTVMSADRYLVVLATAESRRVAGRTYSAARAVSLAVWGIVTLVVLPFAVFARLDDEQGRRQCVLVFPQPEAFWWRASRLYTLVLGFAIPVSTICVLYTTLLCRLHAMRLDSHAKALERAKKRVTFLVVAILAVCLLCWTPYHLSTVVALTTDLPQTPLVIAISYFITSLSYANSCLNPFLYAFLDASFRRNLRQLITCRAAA

[23] = molecular target: Cytochrome P450 3A4 (Homo sapiens, UniProt P08684);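 note: CYP3A4 tested as one member of a cytochrome P450 panel screen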
Sequence of Cytochrome P450 3A4 (P08684 whole entry): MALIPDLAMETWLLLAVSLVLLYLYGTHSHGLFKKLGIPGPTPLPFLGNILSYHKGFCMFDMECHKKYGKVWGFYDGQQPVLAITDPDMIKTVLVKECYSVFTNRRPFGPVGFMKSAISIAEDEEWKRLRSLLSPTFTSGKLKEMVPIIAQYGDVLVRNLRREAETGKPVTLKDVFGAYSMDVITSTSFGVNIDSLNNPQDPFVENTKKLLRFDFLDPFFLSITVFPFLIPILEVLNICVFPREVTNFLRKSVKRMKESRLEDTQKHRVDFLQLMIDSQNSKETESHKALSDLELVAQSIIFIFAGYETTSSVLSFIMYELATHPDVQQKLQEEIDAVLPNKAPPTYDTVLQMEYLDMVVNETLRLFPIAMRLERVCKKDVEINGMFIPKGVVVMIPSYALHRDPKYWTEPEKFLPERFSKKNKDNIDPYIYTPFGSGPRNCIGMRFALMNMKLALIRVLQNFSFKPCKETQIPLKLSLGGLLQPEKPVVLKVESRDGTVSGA

[24] = molecular target: Melanin-concentrating hormone receptor 1 (Homo sapiens, UniProt Q99705); experiment: Fluorescence-based counterscreen for antagonists of the G-protein coupled receptor 7 (GPR7): cell-based high throughput dose response assay to identify antagonists of the melanin-concentrating hormone receptor 1 (MCHR1).; type: functional
Sequence of Melanin-concentrating hormone receptor 1 (Q99705 whole entry): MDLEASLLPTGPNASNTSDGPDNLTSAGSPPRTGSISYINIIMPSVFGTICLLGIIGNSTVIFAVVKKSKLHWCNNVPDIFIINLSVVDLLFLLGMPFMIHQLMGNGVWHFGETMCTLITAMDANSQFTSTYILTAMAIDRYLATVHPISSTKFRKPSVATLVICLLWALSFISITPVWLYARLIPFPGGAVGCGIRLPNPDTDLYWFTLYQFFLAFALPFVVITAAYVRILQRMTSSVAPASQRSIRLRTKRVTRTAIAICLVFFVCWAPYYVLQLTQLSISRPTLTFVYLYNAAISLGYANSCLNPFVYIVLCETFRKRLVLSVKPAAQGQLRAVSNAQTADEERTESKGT

[25] = tested on: HEK293; experiment: NOD2 signaling inhibitors in MDP-stimulated cells, cell-based, uHTS, luminescence (AID 2001); type: functional; settings: Homo sapiens
[26] = tested on: HEK293; experiment: inhibition of NOD1-driven NF-kB reporter – cell-based, luminescence, uHTS, primary screen (AID 1578); type: functional; settings: Homo sapiens
[27] = tested on: HEK293; experiment: cells; type: functional, cell-based; settings: Homo sapiens
[28] = tested on: HEK293; experiment: cells; type: functional, cell-based; settings: Homo sapiens; remark: listed apart in the source
[29] = molecular target: Cytochrome P450 2C9 (Homo sapiens, UniProt P11712)
Sequence of Cytochrome P450 2C9 (P11712 whole entry): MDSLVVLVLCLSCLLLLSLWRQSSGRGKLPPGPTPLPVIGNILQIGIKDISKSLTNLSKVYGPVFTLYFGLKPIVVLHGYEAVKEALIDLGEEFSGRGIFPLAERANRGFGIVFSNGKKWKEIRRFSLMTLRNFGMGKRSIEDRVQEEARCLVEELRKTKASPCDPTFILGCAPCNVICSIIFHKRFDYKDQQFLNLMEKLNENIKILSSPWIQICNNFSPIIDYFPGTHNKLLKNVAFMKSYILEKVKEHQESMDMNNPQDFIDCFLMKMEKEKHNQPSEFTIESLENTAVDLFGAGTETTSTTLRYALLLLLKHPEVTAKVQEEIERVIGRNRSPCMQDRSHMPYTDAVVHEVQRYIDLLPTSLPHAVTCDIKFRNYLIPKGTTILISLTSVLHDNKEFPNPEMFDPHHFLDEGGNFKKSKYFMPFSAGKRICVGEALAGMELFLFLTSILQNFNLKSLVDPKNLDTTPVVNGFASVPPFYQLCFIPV

## Fc1ccc(-n2cc(-c3ccccc3)c3c(S)ncnc32)cc1
[1]
  EC50: 12.1 µM (active)
[2]
  EC50: > 150 µM (not active)
[3]
  EC50: > 150 µM (not active)
[4]
  EC50: > 59.6 µM (inactive)
[5]
  EC50: > 59.6 µM (inactive)

## COc1ccccc1NC(=O)c1cnc(SCC(=O)NCC2CCCO2)n(C)c1=O (stereo not given)
[6]
  AC50: 8.88 µM (active)
[7]
  EC50: 10.8 µM (active)
[8]
  AC50: 9.19 µM (active)
[4]
  EC50: > 59.6 µM (inactive)
[9]
  AC50: 42.4 µM (active)
[5]
  EC50: > 59.6 µM (inactive)

## CC(C)(C)c1ccc(Cn2c(=N)n(CC(O)c3ccco3)c3ccccc32)cc1 (stereo not given)
[10]
  CC50: 9.05 µM (active)
[11]
  EC50: > 260 µM (inactive)
[12]
  EC50: 2.12 µM (active)
[6]
  AC50: 11.8 µM (active)
[13]
  CC50: 9.26 µM (active)
[14]
  CC50: 11.9 µM (active)
[15]
  IC50: 22 µM (active)
[16]
  CC50: 15.7 µM (active)
[17]
  AC50: 18.6 µM (active)
[18]
  EC50: > 60 µM (not active)

## CC(=O)Nc1ccc(S(=O)(=O)N(C)CCOCc2ccccc2)cc1
[19]
  IC50: 1.48 µM (active)
[20]
  IC50: 1.82 µM (active)

## CO[C@H]1C=CO[C@@]2(C)Oc3c(C)c(O)c4c(O)c(c(C=NN5CCN(C)CC5)c(O)c4c3C2=O)NC(=O)C(C)=CC=C[C@H](C)[C@H](O)[C@@H](C)[C@@H](O)[C@@H](C)[C@H](OC(C)=O)[C@@H]1C
[21]
  AC50: 14.8 µM (active)
[1]
  EC50: < 0.06 µM (active)
[2]
  EC50: < 0.06 µM (active)

## Cc1ccccc1Oc1ncnc2oc(-c3ccccc3)cc12
[22]
  IC50: > 43.8 µM (not active)
[23]
  AC50: inconclusive
[24]
  IC50: 24.3 µM (not active)

## CCCCCOc1ccc(/C=C/c2c([N+](=O)[O-])c(=O)n(C)c(=O)n2C)cc1
[25]
  IC50: 8.94 µM (active)
[26]
  EC50: > 20 µM (inactive)
[27]
  IC50: > 20 µM (inactive)
[28]
  IC50: > 20 µM (inactive)

## CCOC(=O)N1CCN(CC(=O)c2ccc3c(c2)CCN3)CC1
[23]
  AC50: inconclusive
[29]
  AC50: 17.8 µM (inconclusive)
